Results published in publication PMC3565020 (ChemMedChem, 2012).
Where “and” joins values, the source holds several entries; their conditions need not be identical. Equal entries are not always repeated. Where two headings read alike, the source gives them in different places.

Columns and labels:
[1] = Sulforhodamine; format: cell-based, human; details: human
[2] = system: L. donovani promastigotes; experiment: L. donovani promastigote viability, 72 hour Alamar blue assay; format: cell-based, Leishmania donovani; details: for IC50: read-out: L. donovani Promastigotes IC50
[3] = system: J-774 murine macrophages; experiment: Cytotoxicity against murine macrophage cells; details: for Cytotoxicity J-774 murine macrophages CC50 / CC50: J-774, Alamar blue; for CC50: read-out: Cytotoxicity J-774 murine macrophages CC50
[4] = system: LU-1 human lung carcinoma cell line; experiment: Sulforhodamine; format: cell-based; details: for Cytotoxicity LU-1 CC50 / CC50: LU-1 human lung carcinoma, SRB; for CC50: read-out: Cytotoxicity LU-1 CC50
[5] = system: VERO cells; details: previous report; cited from earlier work
[6] = system: L. donovani axenic amastigotes; experiment: L. donovani axenic amastigote viability, 72 hour Alamar blue assay; format: cell-based, Leishmania donovani
[7] = Cytotoxicity against murine macrophage cells; details: mouse
[8] = 72 hour Alamar blue, pH 5.5, 37°C
[9] = read-out: L. donovani Axenic amastigotes IC50, 72 hour Alamar blue, pH 5.5, 37°C

Structure (SMILES)	CC50 ([1]; LU-1 lung carcinoma cells)	L. donovani Promastigotes IC50 ([2]; 72 hour Alamar blue, 26°C)	IC50 ([2]; 72 hour Alamar blue, 26°C)	Cytotoxicity J-774 murine macrophages CC50 [3]	Cytotoxicity LU-1 CC50 [4]	L. donovani Axenic amastigotes IC50 [6, 8]	CC50 [3]	CC50 [4]	IC50 [6, 9]	further results
C[C@@H]1[C@H](O)[C@@H](C)/C=C/C=C/C=C/C=C/C=C/C=C/C=C/[C@H](O[C@@H]2O[C@H](C)[C@@H](O)[C@H](N)[C@@H]2O)C[C@@H]2O[C@](O)(C[C@@H](O)C[C@@H](O)[C@H](O)CC[C@@H](O)C[C@@H](O)CC(=O)O[C@H]1C)C[C@H](O)[C@H]2C(=O)O [Amphotericin B, reference compound]	> 40 µg/mL									
COc1ccc2[nH]c3ccc(C=O)cc3c2c1 [Compound 5g]		27 µg/mL	120 µM	NC (NC (Noncytotoxic): CC50 > 40 μg/mL)	NC^[h] (NC (Noncytotoxic): CC50 > 40 μg/mL)	NA^[g] (NA (Not active): IC50 > 40 μg/mL)				CC values in VERO cells [5]: > 102 µg/mL
COc1ccc2[nH]c3cc(O)c(C=O)cc3c2c1 [Compound 6a, lansine]										IC50 ([2]; Leishmania donovani, 72 h): 89.1 µM and 21.5 µg/mL; CC50 [7]: 20 µg/mL and 82.9 µM; SI-2 (Selectivity Index-2) = CC50 (J-774)/IC50 (amastigotes) ([3]; J-774 vs axenic amastigotes): 2; SI-1 (Selectivity Index-1) = CC50 (LU-1)/IC50 (amastigotes) ([4]; LU-1 vs axenic amastigotes): 2; CC50 [1]: 16.5 µg/mL and 68.4 µM; CC values in VERO cells [5]: > 102 µg/mL; IC50 ([6]; Leishmania donovani, 72 h, pH 5.5, read-out: L. donovani Axenic amastigotes IC50): 11 µg/mL and 45.6 µM
O=Cc1cc2c(cc1O)[nH]c1ccccc12 [Compound 6b]		35.4 µg/mL	168 µM	21 µg/mL	45 µg/mL	11.0 µg/mL	99.4 µM	213 µM	52 µM	
O=Cc1cc2c(cc1O)[nH]c1ccc(C(F)(F)F)cc12 [Compound 6c]		7.3 µg/mL	26.2 µM	9.8 µg/mL	21 µg/mL	6.0 µg/mL	35.1 µM	75.2 µM	21.5 µM	
O=Cc1cc2c(cc1O)[nH]c1ccc(OC(F)(F)F)cc12 [Compound 6d]		3.7 µg/mL	12.6 µM	8.0 µg/mL	45 µg/mL	2.1 µg/mL	27.1 µM	152 µM	7.1 µM	
O=Cc1cc2c(cc1O)[nH]c1ccc([N+](=O)[O-])cc12 [Compound 6f]		NA (NA (Not active): IC50 > 40 μg/mL)		20.0 µg/mL	NC (NC (Noncytotoxic): CC50 > 40 μg/mL)	NA (NA (Not active): IC50 > 40 μg/mL)	78 µM			
O=Cc1cc2c(cc1O)[nH]c1ccc(O)cc12 [Compound 7, 2,6-Dihydroxy-9H-carbazole-3-carbaldehyde]	> 40 µg/mL									CC50 ([7]; J774 macrophage cells): 32 µg/mL and 141 µM
COc1ccc2[nH]c3cc(OC)c(C=O)cc3c2c1 [Compound 8, 2,6-Dimethoxy-9H-carbazole-3-carbaldehyde]	> 40 µg/mL									CC50 ([7]; J774 macrophage cells): > 40 µg/mL
COc1ccc2c(c1)c1cc(C=O)c(OC)cc1n2C [Compound 9, 2,6-dimethoxy-9-methyl-9H-carbazole-3-carbaldehyde]	> 40 µg/mL									CC50 ([7]; J774 macrophage cells): > 40 µg/mL
COc1ccc2[nH]c3cc(O)c(CO)cc3c2c1 [Compound 11]		NA (NA (Not active): IC50 > 40 μg/mL)		NC (NC (Noncytotoxic): CC50 > 40 μg/mL)	> 60 µg/mL	10.0 µg/mL		> 247 µM	41.1 µM	
COc1ccc2[nH]c3cc(O)c(C)cc3c2c1 [Compound 13]		17.7 µg/mL	78 µM	20 µg/mL	30 µg/mL	11.5 µg/mL	88.1 µM	132 µM	50.6 µM	
CCn1c2ccccc2c2cc(C=O)ccc21 [Compound 14]		38.6 µg/mL	173 µM	21 µg/mL	25 µg/mL	NA (NA (Not active): IC50 > 40 μg/mL)	94.1 µM	112 µM		
Oc1ccc2c(c1)[nH]c1ccccc12 [Compound 15]		28.5 µg/mL	156 µM	NC (NC (Noncytotoxic): CC50 > 40 μg/mL)	40 µg/mL	10.0 µg/mL		218 µM	54.6 µM	
Cn1c2ccccc2c2ccccc21 [Compound 16]		37.0 µg/mL	204 µM	NC (NC (Noncytotoxic): CC50 > 40 μg/mL)	NC (NC (Noncytotoxic): CC50 > 40 μg/mL)	NA (NA (Not active): IC50 > 40 μg/mL)				
N=C(N)c1ccc(OCCCCCOc2ccc(C(=N)N)cc2)cc1 [Pentamidine, reference compound]	0.5 µg/mL and 1.5 µM		3.5 µM						2.9 µM	
